{"source": "paper PMC5216130", "about": "“Saturated palmitic acid induces myocardial inflammatory injuries through direct binding to TLR4 accessory protein MD2” (Nature Communications, 2017)", "key": {"[1]": {"target": "T1, MD2 (myeloid differentiation protein 2; rhMD2) (Homo sapiens, UniProt Q9Y6Y9)", "T1 construct": "gene LY96; recombinant human MD2 (rhMD2)", "T1 sequence (Q9Y6Y9 19-160)": "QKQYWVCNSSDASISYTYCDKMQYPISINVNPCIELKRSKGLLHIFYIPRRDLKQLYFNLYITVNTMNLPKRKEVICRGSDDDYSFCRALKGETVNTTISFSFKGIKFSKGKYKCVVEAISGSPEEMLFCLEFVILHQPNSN", "assay": "ForteBio Octet HTX (called SPR in the paper)", "type": "binding"}, "[2]": {"target": "T1, MD2 (myeloid differentiation protein 2; rhMD2)", "assay": "SPR (ProteOn XPR36); confirmed on ForteBio Octet HTX (KD=[…]) and by biotin-PA ELISA", "type": "binding"}}}
{"smiles": "CCCCCCCC/C=C\\CCCCCCCC(=O)O", "note": "[oleic acid]", "values": [{"measurement": "Kd", "setting": "[1]; read-out: Kd", "result": 35, "unit": "µM"}]}
{"smiles": "CCCCCCCCCCCCCCCC(=O)O", "note": "[PA, palmitic acid]", "values": [{"measurement": "Kd", "setting": "[2]", "result": 31.6, "unit": "µM"}]}
{"smiles": "CCCCC/C=C\\C/C=C\\CCCCCCCC(=O)O", "note": "[linoleic acid]", "values": [{"measurement": "Kd", "setting": "[1]", "result": 54, "unit": "µM"}]}
